Test results published in patent US7572800B2, “Combination therapy to treat hepatitis B virus” (Gilead Sciences, Inc., priority 1998, dated 2009).

Legend:
[1] = test system: HBV; assay: Antiviral evaluation: extracellular (virion) HBV DNA levels produced by 2.2.15 cells; type: cell-based, hepatitis B virus; settings: for depression of extracellular (virion) HBV DNA levels: 9 consecutive daily doses
Procedure: Details of the assay methodology can be found in: Korba and Gerin, Antiviral Res. 19: 55-70 (1992) and Korba, Antiviral Res. 29: 49-52 (1996). The antiviral evaluations were performed on six separate cultures per each of four test concentrations. All wells, in all plates, were seeded at the same density and at the same time.
Due to the inherent variations in the levels of both intracellular and extracellular HBV DNA, only depressions greater than 3.0-fold for HBV virion DNA from the average levels for these HBV DNA forms in untreated cells are generally considered to be statistically significant [P<0.05] (Korba and Gerin, Antiviral Res. 19: 55-70, 1992). Typical values for extracellular HBV virion DNA in untreated cells range from 80 to 150 pg/ml culture medium (average of approximately 92 pg/ml).
For reference, the manner in which the hybridization analyses were performed for these experiments results in an equivalence of approximately 1.0 pg of extracellular HBV DNA/ml culture medium to 3×10^5 viral particles/ml.
For the antiviral test analyses, confluent cultures were maintained on 96-well flat bottomed tissue culture plates. Two separate (replicate) plates were used for each drug treatment. A total of 3 cultures on each plate were treated with each of the dilutions of antiviral agents (6 cultures per dilution). Cultures were treated with 9 consecutive daily doses of the test compounds. Medium was changed daily with fresh test compounds. Only extracellular (virion) HBV DNA levels were followed.

[2] = test system: 2.2.15 cells; assay: Toxicity analysis by uptake of neutral red dye; settings: at the concentrations used for the antiviral evaluations
Procedure: Toxicity analysis were performed in 96-well flat bottomed tissue culture plates. Cells for the toxicity analyses were cultured and treated with test compounds with the same schedule and under identical culture conditions as used for the antiviral evaluations. Each compound was tested at 4 concentrations, each in triplicate cultures. Uptake of neutral red dye was used to determine the relative level of toxicity 24 hours following the last treatment. The absorbance of internalized dye at 510 nM (A510) was used for the quantative analysis. Values are presented as a percentage of the average A510 values (±standard deviations) in 9 separate cultures of untreated cells maintained on the same 96-well plate as the test compounds.

| Compound | depression of extracellular (virion) HBV DNA levels [1] | anti-HBV activity/potency compared with previous reports or earlier analyses [1] | toxicity (greater than 50% depression of neutral red dye uptake levels observed in untreated cells) [2] |
| --- | --- | --- | --- |
| Nc1nc2c(ncn2C2COC(CO)O2)c(=O)[nH]1 (stereo not drawn) [DXG] | significant and selective depressions | – | – |
| Nc1nc(=O)n([C@@H]2CS[C@H](CO)O2)cc1F [FTC, β-2-Hydroxymethyl-5-(5-fluorocytosin-1-yl)-1,3-oxathiolane] | significant and selective depressions | lower than that observed in earlier analyses | No significant toxicity |
| Nc1ccn([C@@H]2CS[C@H](CO)O2)c(=O)n1 [3TC, (−)β,L,2′,3′-dideoxy-3′thiacytidine] | – | – | No significant toxicity |
| Nc1nc2c(ncn2CCC(CO)CO)c(=O)[nH]1 [PCV, 2-amino-1,9-dihydro-9-[4-hydroxy-3-(hydroxymethyl)butyl]-6H-purin-6-one, reference compound] | significant depressions | higher than previously reported | No significant toxicity |
| Cc1cn([C@H]2O[C@@H](CO)[C@H](O)[C@H]2F)c(=O)[nH]c1=O [L-FMAU, 2′-fluoro-5-methyl-β-L-arabinofuranolyluridine] | significant and selective depressions | lower than that observed in earlier analyses | – |
| Nc1nc(N)c2ncn([C@H]3CO[C@@H](CO)O3)c2n1 [DAPD] | significant and selective depressions | lower than that observed in earlier analyses | – |
